Data on 16 compounds can be found in patent US20090093469A1, “Phenylaminopropanol Derivatives and Methods of Their Use” (WYETH, priority 2004, published 2009).

SMILES strings stand for the structures. Structures can show the parent of a compound that is named as a salt.

The target in the first assay is T1, hNET (Homo sapiens, UniProt P23975).
T1 construct: expressed in transfected cells
T1 sequence (P23975 whole entry): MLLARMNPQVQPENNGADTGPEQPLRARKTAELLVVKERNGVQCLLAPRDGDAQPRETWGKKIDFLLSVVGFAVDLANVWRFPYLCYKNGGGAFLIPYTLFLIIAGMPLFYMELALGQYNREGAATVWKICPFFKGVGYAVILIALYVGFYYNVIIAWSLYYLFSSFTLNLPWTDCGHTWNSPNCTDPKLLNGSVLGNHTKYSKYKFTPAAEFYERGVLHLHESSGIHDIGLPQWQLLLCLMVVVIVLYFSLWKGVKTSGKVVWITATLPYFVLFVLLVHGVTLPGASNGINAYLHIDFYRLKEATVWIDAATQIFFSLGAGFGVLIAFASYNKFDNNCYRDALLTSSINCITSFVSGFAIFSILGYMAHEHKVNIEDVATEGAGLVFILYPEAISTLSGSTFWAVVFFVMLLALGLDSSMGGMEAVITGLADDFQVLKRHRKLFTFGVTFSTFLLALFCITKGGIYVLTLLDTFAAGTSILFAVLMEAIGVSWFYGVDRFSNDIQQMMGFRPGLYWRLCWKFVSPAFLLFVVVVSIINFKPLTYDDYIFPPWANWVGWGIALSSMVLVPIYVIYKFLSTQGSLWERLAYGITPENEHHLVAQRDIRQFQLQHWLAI
Kind of assay: Norepinephrine (NE) uptake assay in MDCK-Net6 cells stably transfected with human hNET. The assay is classed as cell-based. Particulars: MDCK-Net6, read-out: % Inhibition @ 1 μM (hNET). The method, then: Cells were plated at 300,000/T75 flask and cells were split twice weekly. […] Cells were plated at 250,000 cells/T75 flask and split twice weekly.
On day 1, cells were plated at 3,000 cells/well in growth medium and maintained in a cell incubator (37° C., 5% CO2). On day 2, growth medium was replaced with 200 μl of assay buffer (25 mM HEPES; 120 mM NaCl; 5 mM KCl; 2.5 mM CaCl2; 1.2 mM MgSO4; 2 mg/ml glucose (pH 7.4, 37° C.)) containing 0.2 mg/ml ascorbic acid and 10 μM pargyline. Plates containing cells with 200 μl of assay buffer were equilibrated for 10 minutes at 37° C. prior to addition of compounds. A stock solution of desipramine was prepared in DMSO (10 mM) and delivered to triplicate wells containing cells for a final test concentration of 1 μM. Data from these wells were used to define non-specific NE uptake (minimum NE uptake). Test compounds were prepared in DMSO (10 mM) and diluted in assay buffer according to test range (1 to 10,000 nM). Twenty-five microliters of assay buffer (maximum NE uptake) or test compound were added directly to triplicate wells containing cells in 200 μl of assay buffer. The cells in assay buffer with test compounds were incubated for 20 minutes at 37° C. To initiate the NE uptake, [^3H]NE diluted in assay buffer (120 nM final assay concentration) was delivered in 25 μl aliquots to each well and the plates were incubated for 5 minutes (37° C.). The reaction was terminated by decanting the supernatant from the plate. The plates containing cells were washed twice with 200 μl assay buffer (37° C.) to remove free radioligand. The plates were then inverted, left to dry for 2 minutes, then reinverted and air-dried for an additional 10 minutes. The cells were lysed in 25 μl of 0.25 N NaOH solution (4° C.), placed on a shake table and vigorously shaken for 5 minutes. After cell lysis, 75 μl of scintillation cocktail was added to each well and the plates were sealed with film tape. The plates were returned to the shake table and vigorously shaken for a minimum of 10 minutes to ensure adequate partitioning of organic and aqueous solutions. The plates were counted in a Wallac Microbeta counter (PerkinElmer) to collect the raw cpm data.
For each experiment, a data stream of cpm values collected from the Wallac Microbeta counter was downloaded to a Microsoft Excel statistical application program. Calculations of EC50 values were made using the transformed-both-sides logistic dose response program written by Wyeth Biometrics Department.
Usually inhibition stands for the percentage by which the read-out fell short of the control. On to `CNC[C@@H](O)[C@H](c1ccccc1)n1ccc2cc(OC)ccc21` (racemic) [Example 80, (1RS,2SR)-1-(5-methoxy-1H-indol-1-yl)-3-(methylamino)-1-phenyl propan-2-ol hydrochloride], for which the inhibition at 1 µM was 83.5%.
As for `CNC[C@@H](O)[C@H](c1ccccc1C)n1ccc2ccccc21` (single isomer, unassigned) [Example 53, hydrochloride], the inhibition at 1 µM amounted to 57.4%.
As for `CNC[C@H](O)[C@@H](c1ccccc1C)n1ccc2ccccc21` (single isomer, unassigned) [Example 54, hydrochloride], the inhibition at 1 µM stood at 68.6%.
The same measure, in the same setting: the figure for `CNCC(O)[C@@H](c1ccccc1)n1ccc2ccccc21` (stereo in doubt) [Example 22, (1R,2S)-1-(1H-indol-1-yl)-3-(methylamino)-1-phenylpropan-2-ol hydrochloride] is 83.8%.
As for `CNCC(O)[C@H](c1ccccc1)n1ccc2ccccc21` (stereo in doubt) [Example 23, (1S,2R)-1-(1H-indol-1-yl)-3-(methylamino)-1-phenylpropan-2-ol hydrochloride], the inhibition at 1 µM amounted to 89.7%.
Still for that read-out and setting: to `CNC[C@@H](O)[C@H](c1cccc(Cl)c1)n1ccc2ccccc21` [Example 33, (1S,2R)-1-(3-chlorophenyl)-1-(1H-indol-1-yl)-3-(methylamino)propan-2-ol hydrochloride] belongs 99.4%.

The assay is the same for the next values; noted with them: hydrochloride, 1 µM.
With `CNC[C@H](O)[C@H](c1ccccc1)n1ccc2ccccc21` (stereo in doubt) [Example 30, (1S,2S)-1-(1H-indol-1-yl)-3-(methylamino)-1-phenylpropan-2-ol hydrochloride], the “% Inhibition @ 1 μM (hNET)” value is reported as 79.7%.
Regarding `CNC[C@@H](O)[C@@H](c1ccccc1)n1ccc2ccccc21` [Example 29, (1R,2R)-1-(1H-indol-1-yl)-3-(methylamino)-1-phenylpropan-2-ol hydrochloride], the “% Inhibition @ 1 μM (hNET)” value is 89.5%.

Still in this assay, the particulars now being: test compound 1 μM; [3H]NE uptake, MDCK-Net6 cells; read-out: % Inhibition @ 1 μM (hNET).
Regarding `CNC[C@@H](O)[C@H](c1ccccc1)n1cnc2ccccc21` (racemic) [Example 72, (1RS,2SR)-1-(1H-benzimidazol-1-yl)-3-(methylamino)-1-phenyl propan-2-ol hydrochloride], the inhibition at 1 µM is 24%.
For `CNC[C@@H](O)[C@H](c1ccccc1)n1c(C)nc2ccccc21` (racemic) [Example 73, (1RS,2SR)-3-(methylamino)-1-(2-methyl-1H-benzimidazol-1-yl)-1-phenylpropan-2-ol hydrochloride], the inhibition at 1 µM was determined as 21.8%.
In the case of `CNC[C@@H](O)[C@H](c1ccccc1)n1ccc2c(OC)cccc21` (racemic) [Example 74, (1RS,2SR)-1-(4-methoxy-1H-indol-1-yl)-3-(methylamino)-1-phenyl propan-2-ol hydrochloride], the inhibition at 1 µM turned out to be 67%.
On the same count and under the same terms, the figure for `Cc1cn([C@@H](c2ccccc2)[C@H](O)CN)c2ccc(F)cc12` (racemic) [Example 118, (1SR,2RS)-3-amino-1-(5-fluoro-3-methyl-1H-indol-1-yl)-1-phenylpropan-2-ol hydrochloride] is 67.9%; for `CNC[C@@H](O)[C@H](c1ccc(OC(F)(F)F)cc1)n1ccc2ccccc21` (single isomer, unassigned) [Example 40, hydrochloride] it is 57.6%; for `CNC[C@H](O)[C@@H](c1ccc(OC(F)(F)F)cc1)n1ccc2ccccc21` (single isomer, unassigned) [Example 41, hydrochloride] it is 32.4%.
Take `OC(CNC1CC1)C(c1cccc(F)c1)n1ccc2ccccc21` (stereo in doubt) [Example 111, (1S,2R)-3-(cyclopropylamino)-1-(3-fluorophenyl)-1-(1H-indol-1-yl)propan-2-ol hydrochloride]: the inhibition at 1 µM is 42.7%.
Turning to `CN1CCN(C[C@H](O)[C@@H](c2ccccc2)n2ccc3ccccc32)CC1` [Example 1, 1RS,2SR)-1-(1H-indol-1-yl)-3-(4-methylpiperazin-1-yl)-1-phenyl propan-2-ol dihydrochloride], the inhibition at 1 µM turned out to be 4.6%.
